Assay [1] concerns S. aureus JE2 (wild type). Description: microbe, parasite or virus in culture. The conditions noted are these: 22 h; for MIC, WT: conventional antibiotics (Table 3), WT JE2. From the text: (§1) Staphylococcus aureus is intrinsically resistant to the clinically approved cationic antimicrobial peptides polymyxin B (PMB) and colistin ([1], [16]). […] The MIC for PMB was subsequently determined using Etests for the identified mutants.
(§2) The strains used in this study include S. aureus strain JE2 (plasmid-cured derivative of USA300 LAC) and all derivative strains within the Nebraska Transposon Mutant Library (NTML), consisting of 1,920 unique transposon mutants with inactivation of nonessential genes ([15]). The bursa aurealis transposon used to create the collection contains the resistance cassette ermB, which confers resistance to erythromycin ([15]). Additionally we used S. aureus SA113 and two derivatives, SA113 ΔdltA ([9]) and SA113 ΔmprF ([10]). All bacterial strains were cultured at 37°C in tryptic soy broth (TSB) or on tryptic soy agar (TSA), with antimicrobial agents added as indicated. Two methods have been employed to determine MICs to various antimicrobial agents. (i) A 2-fold broth microdilution assay in TSB (100 µl) with an initial inoculum of approximately 5 × 10^5 cells/ml was employed to determine the MICs of polymyxin B sulfate (Sigma), gallidermin (Santa Cruz Biotechnology), nisin (Sigma), bacitracin (Sigma), and LL-37 (Isca Biochemicals). […] The MIC was determined upon incubation at 37°C for 22 h. […]

For assay [2], the system named is S. aureus JE2 vraF transposon mutant (SAUSA300_0647). Description: microbe, parasite or virus in culture. The conditions noted are these: for MIC, vraF: conventional antibiotics (Table 3); for MIC, vraF / MIC: 22 h.
Excerpt: as §1, §2

The test system of assay [3] is S. aureus JE2 graR transposon mutant (SAUSA300_0645). Description: microbe, parasite or virus in culture. The conditions noted are these: for MIC, graR: conventional antibiotics (Table 3); for MIC, graR / MIC: 22 h.
Excerpt: as §1, §2

Assay [4] relates to S. aureus JE2 vraG transposon mutant (SAUSA300_0648). Briefly: microbe, parasite or virus in culture. To be noted: for MIC, vraG: conventional antibiotics (Table 3); for MIC, vraG / MIC: 22 h.
Excerpt: as §1, §2

Assay [5] deals with S. aureus JE2 atpA transposon mutant (SAUSA300_2060). Description: microbe, parasite or virus in culture. The conditions noted are these: for MIC, atpA: conventional antibiotics (Table 3); for MIC, atpA / MIC: 22 h.
Excerpt: as §1, §2

Assay [6] concerns S. aureus JE2 atpH transposon mutant (SAUSA300_2061). The format is cell-based, Staphylococcus aureus. The conditions noted are these: Etest on TSA, 37°C, 22 h; atpH mutant. From the text: (§3) Staphylococcus aureus is intrinsically resistant to the clinically approved cationic antimicrobial peptides polymyxin B (PMB) and colistin ([1], [16]). […] The MIC for PMB was subsequently determined using Etests for the identified mutants. Nineteen mutants were confirmed to be at least 2-fold more susceptible than the WT (Table 1). As expected, we identified transposon insertions in graS, graR, vraF, and vraG, corroborating previous work on these determinants in S. aureus in relation to increased PMB susceptibility ([12]).
(§4) The strains used in this study include S. aureus strain JE2 (plasmid-cured derivative of USA300 LAC) and all derivative strains within the Nebraska Transposon Mutant Library (NTML), consisting of 1,920 unique transposon mutants with inactivation of nonessential genes ([15]). The bursa aurealis transposon used to create the collection contains the resistance cassette ermB, which confers resistance to erythromycin ([15]). Additionally we used S. aureus SA113 and two derivatives, SA113 ΔdltA ([9]) and SA113 ΔmprF ([10]). All bacterial strains were cultured at 37°C in tryptic soy broth (TSB) or on tryptic soy agar (TSA), with antimicrobial agents added as indicated. Two methods have been employed to determine MICs to various antimicrobial agents. (i) A 2-fold broth microdilution assay in TSB (100 µl) with an initial inoculum of approximately 5 × 10^5 cells/ml was employed to determine the MICs of polymyxin B sulfate (Sigma), gallidermin (Santa Cruz Biotechnology), nisin (Sigma), bacitracin (Sigma), and LL-37 (Isca Biochemicals). (ii) An Etest (BioMérieux) performed on TSA plates was employed to determine MICs for polymyxin B, colistin, ciprofloxacin, oxacillin, linezolid, gentamicin, vancomycin, and daptomycin. The MIC was determined upon incubation at 37°C for 22 h. When indicated, the Etest (BioMérieux) was performed on Mueller-Hinton agar plates (cation adjusted for calcium and magnesium).

The test system of assay [7] is S. aureus JE2 yajC transposon mutant (SAUSA300_1594). It counts as cell-based, Staphylococcus aureus. To be noted: Etest on TSA, 37°C, 22 h.
Excerpt: as §3, §4

Assay [8] relates to S. aureus JE2 transposon mutant SAUSA300_0980 (hypothetical protein). The format is cell-based, Staphylococcus aureus. The conditions noted are these: Etest on TSA, 37°C, 22 h.
Excerpt: as §3, §4

Assay [9] deals with S. aureus JE2 vraS transposon mutant (SAUSA300_1866). The format is cell-based, Staphylococcus aureus. To be noted: Etest on TSA, 37°C, 22 h.
Excerpt: as §3, §4

Assay [10] relates to S. aureus JE2 atpB transposon mutant (SAUSA300_2064). It counts as cell-based, Staphylococcus aureus. The conditions noted are these: Etest on TSA, 37°C, 22 h; atpB mutant.
Excerpt: as §3, §4

The test system of assay [11] is S. aureus JE2 cbiO transposon mutant (SAUSA300_2176). It counts as cell-based, Staphylococcus aureus. The conditions noted are these: Etest on TSA, 37°C, 22 h.
Excerpt: as §3, §4

The test system of assay [12] is S. aureus JE2 transposon mutant SAUSA300_1785 (putative ABC transporter protein EcsB). The format is cell-based, Staphylococcus aureus. The conditions noted are these: Etest on TSA, 37°C, 22 h.
Excerpt: as §3, §4

Assay [13] concerns S. aureus JE2 transposon mutant SAUSA300_0918 (diacylglycerol glucosyltransferase). It counts as cell-based, Staphylococcus aureus. The conditions noted are these: Etest on TSA, 37°C, 22 h.
Excerpt: as §3, §4

Assay [14] has as its system S. aureus JE2 transposon mutant SAUSA300_1254 (hypothetical protein). It counts as cell-based, Staphylococcus aureus. To be noted: Etest on TSA, 37°C, 22 h.
Excerpt: as §3, §4

Assay [15] concerns S. aureus JE2 graS transposon mutant (SAUSA300_0646). It counts as cell-based, Staphylococcus aureus. To be noted: Etest on TSA, 37°C, 22 h; graS mutant.
Excerpt: as §3, §4

Assay [16] concerns S. aureus JE2 transposon mutant SAUSA300_1495 (hypothetical protein). The format is cell-based, Staphylococcus aureus. The conditions noted are these: Etest on TSA, 37°C, 22 h.
Excerpt: as §3, §4

The subject of assay [17] is S. aureus JE2 transposon mutant SAUSA300_1802 (hypothetical protein). The format is cell-based, Staphylococcus aureus. To be noted: Etest on TSA, 37°C, 22 h.
Excerpt: as §3, §4

Assay [18] relates to S. aureus JE2 atpG transposon mutant (SAUSA300_2059). The format is cell-based, Staphylococcus aureus. To be noted: Etest on TSA, 37°C, 22 h; atpG mutant.
Excerpt: as §3, §4

Assay [19] deals with S. aureus JE2 lspA transposon mutant (SAUSA300_1089). It counts as cell-based, Staphylococcus aureus. To be noted: Etest on TSA, 37°C, 22 h.
Excerpt: as §3, §4

Assay [20] concerns S. aureus JE2 trkA transposon mutant (SAUSA300_0988). It counts as cell-based, Staphylococcus aureus. The conditions noted are these: Etest on TSA, 37°C, 22 h.
Excerpt: as §3, §4

[21] abbreviates: Staphylococcus aureus, read-out: MIC, WT.
The mark [22] stands for this setting: Etest on TSA, 37°C, vraF mutant.
Where [23] appears, read: Etest on TSA, 37°C, graR mutant.
[24] abbreviates: Etest on TSA, 37°C, vraG mutant.
Setting [25] is: Etest on TSA, 37°C, atpA mutant.

In brackets after ≈: the same amount, converted by molar mass. Like-named read-outs stand apart in the source and are kept apart here. Bridge positions count the residues as written; N and C are the ends. Square brackets hold non-standard residues; d marks the D form. Peptide text beside a SMILES is read from it. * marks the point of attachment. X1 = CC[C@H](C)CCCCC(=O)*; Dab = NCC[C@H](N)C(=O)O Some results are limits rather than exact numbers.

Turning to `Cc1onc(-c2ccccc2)c1C(=O)N[C@@H]1C(=O)N2[C@@H]1SC(C)(C)[C@@H]2C(=O)O` [Oxacillin, oxacillin], the MIC in [1] (setting [21]) is 0.5 µg/mL (≈ 1.25 µM).
As to `CCCCCCCCCC(=O)N[C@@H](Cc1c[nH]c2ccccc12)C(=O)N[C@H](CC(N)=O)C(=O)N[C@@H](CC(=O)O)C(=O)N[C@@H]1C(=O)NCC(=O)N[C@@H](CCCN)C(=O)N[C@@H](CC(=O)O)C(=O)N[C@H](C)C(=O)N[C@@H](CC(=O)O)C(=O)NCC(=O)N[C@H](CO)C(=O)N[C@@H]([C@H](C)CC(=O)O)C(=O)N[C@@H](CC(=O)c2ccccc2N)C(=O)O[C@@H]1C` [Daptomycin, daptomycin], the “MIC, WT” value in [1] (Etest on TSA, 37°C) is 0.25 µg/mL (≈ 0.154 µM). Besides, the “MIC, vraF” value in [2] (setting [22]) came out at 0.25 µg/mL (≈ 0.154 µM). In addition, in [3] (setting [23]), the “MIC, graR” value stood at 0.19 µg/mL (≈ 0.117 µM). Further, the “MIC, vraG” value in assay [4] (setting [24]) was found to be 0.25 µg/mL (≈ 0.154 µM). Moreover, the “MIC, atpA” value in assay [5] (setting [25]) amounted to 0.250 µg/mL (≈ 0.154 µM).
For `CNC(C)C1CCC(N)C(OC2C(N)CC(N)C(OC3OCC(C)(O)C(NC)C3O)C2O)O1` (centres unmarked) [Gentamicin, gentamicin], the MIC in assay [1] (setting [21]) came to 1.5 µg/mL (≈ 3.14 µM); in assay [2] (Staphylococcus aureus, read-out: MIC, vraF), 0.38 µg/mL (≈ 0.796 µM); in [3] (Staphylococcus aureus, read-out: MIC, graR) it was 0.5 µg/mL (≈ 1.05 µM); in assay [4] (Staphylococcus aureus, read-out: MIC, vraG) it was 0.25 µg/mL (≈ 0.523 µM); in [5] (Staphylococcus aureus, read-out: MIC, atpA), 0.094 µg/mL (≈ 0.197 µM). Besides, the “fold reduction in MIC / increased sensitivity relative to WT” value is recorded as 3-6 fold in assay [2] ({}), 3-6 fold in [3] ({}), 3-6 fold in assay [4] ({}) and 16 fold in assay [5] ({}).
Turning to `CC(=O)NC[C@H]1CN(c2ccc(N3CCOCC3)c(F)c2)C(=O)O1` [Linezolid, linezolid], the MIC in assay [1] (setting [21]) was 2 µg/mL (≈ 5.93 µM).
Regarding `CC[C@H](C)CCCCC(=O)N[C@@H](CCN)C(=O)N[C@H](C(=O)N[C@@H](CCN)C(=O)N[C@H]1CCNC(=O)[C@H]([C@@H](C)O)NC(=O)[C@H](CCN)NC(=O)[C@H](CCN)NC(=O)[C@H](CC(C)C)NC(=O)[C@@H](CC(C)C)NC(=O)[C@H](CCN)NC1=O)[C@@H](C)O` [Colistin, colistin] (X1-[Dab]T[Dab][Dab][Dab][dL]L[Dab][Dab]T; lactam 4-C (inferred); N-terminus assumed), the MIC in [1] (Etest on TSA, 37°C, wild type S. aureus JE2) was above 256 µg/mL; in assay [2] (setting [22]) it was 32 µg/mL (≈ 27.4 µM); in assay [3] (setting [23]) it was 32 µg/mL (≈ 27.4 µM); in [4] (setting [24]), 24 µg/mL (≈ 20.5 µM); in [5] (setting [25]) it was 48 µg/mL (≈ 41 µM); in assay [6], 48 µg/mL (≈ 41 µM). Also, the MIC is 256 µg/mL (≈ 219 µM) in [7]; above 256 µg/mL in [8]; 256 µg/mL (≈ 219 µM) in [9]; 48 µg/mL (≈ 41 µM) in [10]; 64 µg/mL (≈ 54.7 µM) in [11]; above 256 µg/mL in assay [12]. In addition, the MIC is above 256 µg/mL in assay [13]; 192 µg/mL (≈ 164 µM) in assay [14]; 32 µg/mL (≈ 27.4 µM) in [15]; above 256 µg/mL in assay [16]; above 256 µg/mL in [17]; 48 µg/mL (≈ 41 µM) in assay [18]. In addition, the results for the MIC in [19] and in assay [20] were 256 µg/mL (≈ 219 µM) and 128 µg/mL (≈ 109 µM), respectively.
For `CN[C@H](CC(C)C)C(=O)N[C@H]1C(=O)N[C@@H](CC(N)=O)C(=O)N[C@H]2C(=O)N[C@H]3C(=O)N[C@H](C(=O)N[C@H](C(=O)O)c4cc(O)cc(O)c4-c4cc3ccc4O)[C@H](O)c3ccc(c(Cl)c3)Oc3cc2cc(c3O[C@@H]2O[C@H](CO)[C@@H](O)[C@H](O)[C@H]2O[C@H]2C[C@](C)(N)[C@H](O)[C@H](C)O2)Oc2ccc(cc2Cl)[C@H]1O` [Vancomycin, vancomycin], the “MIC, WT” value in assay [1] (Etest on TSA, 37°C) stood at 1.5 µg/mL (≈ 1.04 µM). For the same compound, the “MIC, vraF” value in assay [2] (setting [22]) was found to be 0.75 µg/mL (≈ 0.518 µM). The “MIC, graR” value in [3] (setting [23]) is 1 µg/mL (≈ 0.69 µM). For the same compound, in assay [4] (setting [24]), the “MIC, vraG” value is 1 µg/mL (≈ 0.69 µM). Further, the “MIC, atpA” value in assay [5] (setting [25]) is 1.500 µg/mL (≈ 1.04 µM).
